Here are results for 13 compounds from PubChem BioAssay (NCI).

Molecules are shown by their SMILES.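 These data come from cells grown in 96-well plates and exposed to compound for 48 hours at five concentrations. Here, GI50 denotes the concentration required for 50% inhibition of growth. TGI is the concentration that stops growth completely.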

Among the test systems are COLO 205 colon; NCI-H23 lung; SK-MEL-28 melanoma; HOP-92 NSCLC; ACHN renal; NCI-H522 lung; OVCAR-3 ovarian; OVCAR-5 ovarian; CAKI-1 renal.
Holding throughout (assay): inhibition of tumour cell growth, NCI panel, 48 h

In the case of `CCOC(=O)C1SC(=Nc2cccc(Cl)c2C)N=C1C` (centres undefined), the TGI in the experiment on COLO 205 colon is 38.3 µM; in the experiment on NCI-H23 lung, > 10 µM; in the experiment on SK-MEL-28 melanoma, > 100 µM; in the experiment with HOP-92 NSCLC, 30.4 µM; in the experiment with ACHN renal, 77.5 µM; in the experiment on NCI-H522 lung it was 35.2 µM. Besides, the TGI was 42.5 µM in the experiment with OVCAR-3 ovarian and 41.9 µM in the experiment on OVCAR-5 ovarian.
Turning to `CCCCCCCCOCC(O)COC(C)C` (centres undefined), the TGI is > 100 µM with COLO 205 colon; > 100 µM in the experiment on CAKI-1 renal; 88 µM with NCI-H23 lung; > 100 µM with SK-MEL-28 melanoma; 81.8 µM with HOP-92 NSCLC; > 100 µM in the experiment on ACHN renal. The TGI in the experiment on OVCAR-3 ovarian was 32.9 µM; with OVCAR-5 ovarian, > 100 µM.
As for `COc1ccc(OC(C)=O)c2c1CCC=CC2=O`, the TGI in the experiment with COLO 205 colon came to 23 µM; in the experiment with NCI-H23 lung it was 32.8 µM; in the experiment on SK-MEL-28 melanoma, 28.6 µM; in the experiment on HOP-92 NSCLC, 7.49 µM; in the experiment on ACHN renal, 32 µM; with NCI-H522 lung, 3.8 µM. For the same compound, the TGI with OVCAR-3 ovarian is 29.3 µM; in the experiment on OVCAR-5 ovarian it was 31 µM.
Consider `Cc1ccc(S(=O)(=O)c2ccc(NC(=O)SCCC(=O)O)cc2)cc1`, for which the TGI in the experiment on COLO 205 colon, with CAKI-1 renal, in the experiment with NCI-H23 lung, in the experiment with SK-MEL-28 melanoma, in the experiment with ACHN renal and in the experiment with NCI-H522 lung was > 100 µM throughout. For the same compound, the TGI with OVCAR-3 ovarian and with OVCAR-5 ovarian was > 100 µM in each case.
For `COc1cccc2ccc(C(=O)c3ccccc3)nc12`, the TGI in the experiment with COLO 205 colon, with CAKI-1 renal, in the experiment on NCI-H23 lung, with SK-MEL-28 melanoma, in the experiment on ACHN renal and in the experiment on NCI-H522 lung was > 100 µM each time. Further, the TGI in the experiment with OVCAR-3 ovarian and with OVCAR-5 ovarian was > 100 µM in each case.
Regarding `CN(C)c1ccc(/C=C/C(=O)[O-])cc1.CN(C)c1ccc(/C=C/C(=O)[O-])cc1.[Cu+2]`, the TGI in the experiment on COLO 205 colon, in the experiment with CAKI-1 renal, with NCI-H23 lung, with SK-MEL-28 melanoma, in the experiment with ACHN renal and with NCI-H522 lung was > 100 µM throughout. Also, the figures for the TGI in the experiment with OVCAR-3 ovarian and in the experiment on OVCAR-5 ovarian were > 100 µM and 60.3 µM, respectively. For the same compound, the GI50 with NCI-H23 lung was > 100 µM; with SK-MEL-28 melanoma it was > 69.8 µM.
For the compound `O=C1CC(c2c(-c3ccccc3)[nH]c3ccccc23)C(=O)N1` (centres undefined), the TGI in the experiment with CAKI-1 renal, in the experiment on NCI-H23 lung, with SK-MEL-28 melanoma, with ACHN renal, with OVCAR-3 ovarian and in the experiment on OVCAR-5 ovarian was > 100 µM in each case.
Take `C=CC(=O)NCCSCCCOC1(C(=O)O)CC(O)C(NC(C)=O)C(C(O)C(O)CO)O1` (centres undefined): the TGI in the experiment with COLO 205 colon, in the experiment with NCI-H23 lung, with SK-MEL-28 melanoma, with HOP-92 NSCLC, with ACHN renal and in the experiment with NCI-H522 lung was > 100 µM each time. Also, the TGI in the experiment with OVCAR-3 ovarian and in the experiment with OVCAR-5 ovarian was > 100 µM in each case.
`COC1OC(CO)C(O)C(OC(C)=O)C1NC(=O)N(CCCl)N=O` (centres undefined): the TGI with COLO 205 colon, in the experiment with CAKI-1 renal, in the experiment with NCI-H23 lung, in the experiment on SK-MEL-28 melanoma, in the experiment on ACHN renal and in the experiment with NCI-H522 lung was > 100 µM throughout. The TGI in the experiment with OVCAR-3 ovarian and in the experiment on OVCAR-5 ovarian was > 100 µM in each case.
Take `COC(=O)CCC(NC(=S)N/N=C/c1ccccn1)C(=O)OC` (centres undefined): the TGI with COLO 205 colon, in the experiment with NCI-H23 lung, with SK-MEL-28 melanoma, with HOP-92 NSCLC, in the experiment with ACHN renal and with NCI-H522 lung was > 100 µM throughout. Moreover, the TGI in the experiment on OVCAR-3 ovarian and in the experiment on OVCAR-5 ovarian was > 100 µM each time.
In the case of `C=C=C(C(=O)OC)S(=O)c1ccccc1[N+](=O)[O-]` (centres undefined), the TGI with COLO 205 colon was > 100 µM; in the experiment on CAKI-1 renal it was > 100 µM; in the experiment on NCI-H23 lung, > 100 µM; with ACHN renal, > 100 µM; in the experiment on NCI-H522 lung, 75.9 µM; in the experiment on OVCAR-3 ovarian it was > 100 µM. In the experiment with OVCAR-5 ovarian, the TGI was > 100 µM.
In the case of `O=S(=O)([O-])c1ccc(N=Cc2ccccc2[O-])cc1.O=S(=O)([O-])c1ccc(N=Cc2ccccc2[O-])cc1.[O]=[U+2]=[O]`, the GI50 in the experiment with COLO 205 colon was 84.8 µM; in the experiment with NCI-H23 lung it was > 100 µM; in the experiment with SK-MEL-28 melanoma it was > 100 µM; in the experiment on HOP-92 NSCLC it was > 100 µM; with ACHN renal, > 100 µM; with NCI-H522 lung it was > 100 µM. Besides, the GI50 in the experiment on OVCAR-3 ovarian and in the experiment with OVCAR-5 ovarian was > 100 µM throughout. For the same compound, the TGI in the experiment with COLO 205 colon, with NCI-H23 lung, in the experiment with SK-MEL-28 melanoma, with HOP-92 NSCLC, in the experiment on ACHN renal and in the experiment on NCI-H522 lung was > 100 µM throughout. The TGI in the experiment with OVCAR-3 ovarian and in the experiment on OVCAR-5 ovarian was > 100 µM in each case.
As for `CN1C(=O)CCC2[C@@H]3CC=C4C[C@@H](O)CC[C@]4(C)C3CC[C@@]21C` (some centres undefined), the TGI with CAKI-1 renal, in the experiment on NCI-H23 lung, in the experiment with SK-MEL-28 melanoma, with ACHN renal, with OVCAR-3 ovarian and in the experiment on OVCAR-5 ovarian was > 100 µM each time.
